Measured values as given in patent publication US11319322B2, “Substituted aryl ether compound, preparation method thereof, pharmaceutical composition and use thereof” (Xiamen University, priority 2017, dated 2022).

How the values were obtained:
Format in all cases: cell-based
CCDC6-RET-BaF3 = target: T1, CCDC6-RET-BaF3 (Homo sapiens, UniProt P07949); assay: Growth inhibition of CCDC6-RET-BaF3 cells stably transfected with kinase (MTS); conditions: 48 h, read-out: CCDC6-RET (IC50/nM)
T1 construct: fused on or other part: Q16204 (Coiled-coil domain-containing protein 6)
T1 sequence (P07949 whole entry, change not shown, the tested form may be a part): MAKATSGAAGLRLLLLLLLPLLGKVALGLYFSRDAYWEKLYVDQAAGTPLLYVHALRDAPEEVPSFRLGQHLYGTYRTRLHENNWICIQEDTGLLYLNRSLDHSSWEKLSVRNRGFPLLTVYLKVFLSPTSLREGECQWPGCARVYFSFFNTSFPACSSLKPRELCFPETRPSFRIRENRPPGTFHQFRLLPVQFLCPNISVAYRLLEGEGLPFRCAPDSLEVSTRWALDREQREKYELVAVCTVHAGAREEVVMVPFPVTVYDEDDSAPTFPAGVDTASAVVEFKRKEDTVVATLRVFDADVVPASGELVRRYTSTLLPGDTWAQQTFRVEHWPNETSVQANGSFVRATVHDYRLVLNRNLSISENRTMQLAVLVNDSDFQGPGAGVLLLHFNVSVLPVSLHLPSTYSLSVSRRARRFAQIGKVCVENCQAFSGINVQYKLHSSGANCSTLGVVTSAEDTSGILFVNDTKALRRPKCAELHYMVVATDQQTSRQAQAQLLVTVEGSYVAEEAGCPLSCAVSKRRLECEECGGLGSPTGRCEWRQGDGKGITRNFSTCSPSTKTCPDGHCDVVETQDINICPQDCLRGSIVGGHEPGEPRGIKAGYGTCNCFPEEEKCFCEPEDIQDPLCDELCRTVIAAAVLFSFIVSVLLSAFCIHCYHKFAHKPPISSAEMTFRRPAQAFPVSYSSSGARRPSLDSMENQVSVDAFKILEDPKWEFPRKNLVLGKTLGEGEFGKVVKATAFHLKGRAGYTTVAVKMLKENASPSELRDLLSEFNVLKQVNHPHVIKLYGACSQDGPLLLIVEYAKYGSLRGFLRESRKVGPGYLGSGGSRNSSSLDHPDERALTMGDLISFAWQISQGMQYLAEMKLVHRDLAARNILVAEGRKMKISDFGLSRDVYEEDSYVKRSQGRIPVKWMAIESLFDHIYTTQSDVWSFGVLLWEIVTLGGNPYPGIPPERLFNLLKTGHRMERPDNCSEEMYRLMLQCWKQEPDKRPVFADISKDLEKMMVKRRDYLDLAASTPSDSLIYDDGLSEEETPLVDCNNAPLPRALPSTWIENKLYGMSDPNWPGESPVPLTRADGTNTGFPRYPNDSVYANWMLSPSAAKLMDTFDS
Summary of the method: (§1)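 IC50 derived from growth inhibition by MTS absorbance at 490 nm after 48 h compound exposure (top 10 μM, 1:3 steps, 8 points, 0.1% DMSO) of 2×10^4 RET-fusion (CCDC6-RET, KIF5B-RET) or wild-type BaF3 cells per well, in triplicate.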

KIF5B-RET-BaF3 = target: T2, KIF5B-RET-BaF3 (Homo sapiens, UniProt P07949); assay: Growth inhibition of KIF5B-RET-BaF3 cells stably transfected with kinase (MTS); conditions: 48 h, read-out: KIF5B-RET (IC50/nM)
T2 construct: fused on or other part: P33176 (Kinesin-1 heavy chain)
T2 sequence (P07949 whole entry, change not shown, the tested form may be a part): as above
Summary of the method: as §1

LC-2/AD cells = assay: Growth inhibition of RET-positive non-small cell lung cancer cells LC-2/AD (MTS); conditions: Homo sapiens, LC-2/AD non-small cell lung cancer cells, 48 h
Method: Growth inhibitory activity of compounds on kinase RET-positive non-small cell lung cancer cells LC-2/AD
The specific test method is given as follows:
1) Medium: DMEM (Dulbecco's modified eagle medium) or RPMI 1640 (containing 10% fetal bovine serum, 100 μg/mL ampicillin, 100 μg/mL streptomycin).
2) Reagents: MTS reaction solution (containing 2 mg/mL of MTS [3-(4,5-dimethylthiazol-2-yl)-5-(3-carboxymethoxyphenyl)-2-(4-sulfophenyl)-2H-tetrazolium, inner Salt]; 100 μg/mL PES (phenazine […])).
3) Compound test: LC-2/AD cells (2×10^4 cells/well) were incubated into a 96-well culture plate, the volume of cell culture fluid was 90 μL, and then 10 μL of the compound at each gradient concentration was added (the highest concentration was 10 μM, which was diluted stepwise by ⅓, and 8 concentration points were set in total; the system contained 0.1% DMSO (dimethyl sulfoxide)). The cell plate with uniformly mixed compound was cultured in a cell culture incubator (37° C.; 5% CO2) for 48 h, then 20 μL of MTS reaction solution was added, uniformly mixed and incubated in the cell culture incubator (37° C.; 5% CO2) for 1-4 hr; OD values at 490 nm were measured by a microplate reader (VARIOSKAN FLASH, Thermo). Three parallels were set in each group of experiments, with 0.1% (a final concentration) DMSO as a negative control, and a medium without cells or compounds as a blank control. The cell growth inhibition rate was calculated by the following formula: Cell growth inhibition rate %=1−(ODexperimental group−ODblank group)/(ODnegative group−ODblank group)×100%
4) IC50 calculation: The semi-inhibitory concentration of the compound acting on cell growth was calculated using GradPad Prism 5 software according to the measured cell growth inhibition rate.

wild-type BaF3 = assay: Growth inhibition of wild-type BaF3 cells, broad-spectrum toxicity (MTS); conditions: Mus musculus, 48 h, read-out: WT Ba/F3 (IC50/nM)
Summary of the method: as §1

| SMILES | GI50 (CCDC6-RET-BaF3) [nM] | GI50 (KIF5B-RET-BaF3) [nM] | IC50 (LC-2/AD cells) [nM] | IC50 (wild-type BaF3) [nM] |
| --- | --- | --- | --- | --- |
| Cc1ccc(Oc2nc(-c3ccncc3)nc3c2ncn3C)cc1C(=O)Nc1ccc(CN2CCN(C)CC2)c(C(F)(F)F)c1 [I-n-3] | 8.38 | 40.5 | 818 | – |
| CN1CCN(Cc2ccc(C(=O)Nc3cc(Oc4nc(-c5cccnc5)nc5ccn(C)c45)ccc3Cl)cc2C(F)(F)F)CC1 [III-k-3] | 1250 | 1190 | – | 1170 |
| CN1CCN(Cc2ccc(NC(=O)c3cccc(Oc4cc(-c5ccncc5)nc5[nH]ccc45)c3)cc2C(F)(F)F)CC1 [V-I-2] | 169 | 169 | – | 3400 |
| CN1CCN(Cc2ccc(C(=O)Nc3cc(Oc4nc(-c5ccc(Cl)cc5)nc5cc[nH]c45)ccc3Cl)cc2C(F)(F)F)CC1 [III-k-13] | 1450 | 1550 | – | 1600 |
| Cc1ccc(Oc2nc(-c3ccsc3)nc3ccn(C)c23)cc1NC(=O)c1ccc(CN2CCN(C)CC2)c(C(F)(F)F)c1 [III-j-8] | 1140 | 1320 | – | 1880 |
| CN1CCN(Cc2ccc(NC(=O)c3cccc(Oc4nc(-c5ccncc5)nc5[nH]cnc45)c3)cc2C(F)(F)F)CC1 [I-l-1] | 476 | 1950 | – | > 10000 |
| CN1CCN(Cc2ccc(C(=O)Nc3cccc(Oc4nc(-c5cccnc5)nc5[nH]ncc45)c3)cc2C(F)(F)F)CC1 [II-h-3] | 343 | 820 | – | 4090 |
| Cc1ccc(C(=O)Nc2ccc(CN3CCN(C)CC3)c(C(F)(F)F)c2)cc1Oc1nc(-c2ccc(O)cc2)nc2cc[nH]c12 [III-m-26] | 1320 | 2900 | – | 4100 |
| Cc1ccc(Oc2nc(-c3ccncc3)nc3[nH]cnc23)cc1C(=O)Nc1ccc(CN2CCN(C)CC2)c(C(F)(F)F)c1 [I-n-1] | 298 | 900 | – | > 10000 |
| Cc1ccc(C(=O)Nc2ccc(CN3CCN(C)CC3)c(C(F)(F)F)c2)cc1Oc1nc(-c2ccc(O)cc2)nc2ccn(C)c12 [III-m-16] | 3670 | 4420 | – | 4360 |
| Cc1ccc(C(=O)Nc2cc(CN3CCN(C)CC3)cc(C(F)(F)F)c2)cc1Oc1nc(-c2cccnc2)nc2ccn(C)c12 [III-q-3] | 1400 | 1400 | – | 1380 |
| Cc1ccc(C(=O)Nc2cc(CN3CCN(C)CC3)cc(C(F)(F)F)c2)cc1Oc1nc(-c2ccncc2)nc2cc[nH]c12 [III-q-2] | 351 | 594 | – | 843 |
| Cc1ccc(C(=O)Nc2ccc(CN3CCN(C)CC3)c(C(F)(F)F)c2)cc1Oc1cc(-c2cccnc2)nc2c1ccn2C [V-m-3] | 1170 | 613 | – | 3370 |
| Cn1cnc2c(Oc3cccc(C(=O)Nc4cccc(C(F)(F)F)c4)c3)nc(-c3ccncc3)nc21 [I-d-2] | 1540 | 5710 | – | > 10000 |
| Cc1ccc(Oc2nc(-c3ccccc3)nc3cc[nH]c23)cc1NC(=O)c1ccc(CN2CCN(C)CC2)c(C(F)(F)F)c1 [III-j-3] | 2480 | 2350 | – | 3780 |
| CN1CCN(Cc2ccc(C(=O)Nc3cc(Oc4nc(-c5ccsc5)nc5ccn(C)c45)ccc3Cl)cc2C(F)(F)F)CC1 [III-k-8] | 3460 | 3580 | – | 3990 |

| SMILES | GI50 (CCDC6-RET-BaF3) [nM] | GI50 (KIF5B-RET-BaF3) [nM] | IC50 (LC-2/AD cells) [nM] | IC50 (wild-type BaF3) [nM] |
| --- | --- | --- | --- | --- |
| CN1CCN(Cc2ccc(NC(=O)c3cc(Oc4nc(-c5cccnc5)nc5cc[nH]c45)ccc3Cl)cc2C(F)(F)F)CC1 [III-o-1] | 2150 | 1550 | – | 1630 |
| Cc1ccc(C(=O)Nc2ccc(CN3CCN(C)CC3)c(C(F)(F)F)c2)cc1Oc1nc(-c2cccc(Cl)c2)nc2cc[nH]c12 [III-m-5] | 3760 | 4040 | – | 3920 |
| CN1CCN(Cc2ccc(NC(=O)c3cc(Oc4nc(-c5ccncc5)nc5cc[nH]c45)ccc3Cl)cc2C(F)(F)F)CC1 [III-o-2] | 17.4 | 13.4 | – | 1290 |
| Cc1ccc(Oc2nc(-c3ccncc3)nc3nn(C)cc23)cc1C(=O)Nc1ccc(CN2CCN(C)CC2)c(C(F)(F)F)c1 [IV-n-2] | 172 | 173 | 1400 | – |
| Cc1ccc(C(=O)Nc2ccc(CN3CCN(C)CC3)c(C(F)(F)F)c2)cc1Oc1nc(-c2ccncc2)nc2ccn(C)c12 [III-m-10] | 544 | 1050 | – | 623 |
| COc1cc2nccc(Oc3ccc(NC(=O)C4(C(=O)Nc5ccc(F)cc5)CC4)cc3)c2cc1OC [Cabozantinib] | 226 | 302 | 4150 | – |
| Cc1ccc(C(=O)Nc2ccc(CN3CCN(C)CC3)c(C(F)(F)F)c2)cc1Oc1nc(N2CC(C)OC(C)C2)nc2ccn(C)c12 (stereo not drawn) [III-m-21] | 3490 | 3750 | – | 2920 |
| Cc1ccc(C(=O)Nc2ccc(CN3CCN(C)CC3)c(C(F)(F)F)c2)cc1Oc1nc(-c2cccnc2)nc2c1cnn2C [II-m-1] | 35.2 | 8.28 | 301 | – |
| Cc1ccc(Oc2nc(-c3ccsc3)nc3c2ncn3C)cc1NC(=O)c1ccc(CN2CCN(C)CC2)c(C(F)(F)F)c1 [I-j-7] | 1030 | 1440 | – | 2410 |
| CN1CCN(Cc2cc(NC(=O)c3cccc(Oc4nc(-c5cccnc5)nc5cc[nH]c45)c3)cc(C(F)(F)F)c2)CC1 [III-p-1] | 4400 | 2920 | – | 3550 |
| CN1CCN(Cc2ccc(NC(=O)c3cccc(Oc4nc(-c5cccnc5)nc5ccsc45)c3)cc2C(F)(F)F)CC1 [VI-l-1] | 2640 | 3220 | – | 4620 |
| Cc1ccc(C(=O)Nc2ccc(CN3CCN(C)CC3)c(C(F)(F)F)c2)cc1Oc1nc(-c2cccnc2)nc2ccn(C)c12 [III-m-9] | 1250 | 3050 | – | 1440 |
| CN1CCN(Cc2ccc(C(=O)Nc3cc(Oc4nc(-c5ccsc5)nc5cc[nH]c45)ccc3Cl)cc2C(F)(F)F)CC1 [III-k-7] | 2960 | 1900 | – | 3720 |
| CN1CCN(Cc2ccc(NC(=O)c3cccc(Oc4cc(-c5ccncc5)nc5c4ccn5C)c3)cc2C(F)(F)F)CC1 [V-I-4] | 337 | 143 | – | 1420 |
| Cc1ccc(C(=O)Nc2cc(CN3CCN(C)CC3)cc(C(F)(F)F)c2)cc1Oc1nc(-c2cccnc2)nc2cc[nH]c12 [III-q-1] | 1330 | 1540 | – | 1430 |
